Earlier results on one molecule are cited in article PMC7199283 (Antiviral research, 2020).

Molecules are shown by their SMILES.

The series concerns HBV. The following applies: ref Hu et al., 2013.

Turning to `CC(C)c1ccc(O)c(=O)c(O)c1` [β-thujaplicinol], the “accumulation of RNA:DNA heteroduplexes within HBV capsids” value is recorded as “dose-dependent accumulation of RNA:DNA heteroduplexes”.
